≈ marks a conversion by molar mass, not a printed value.
Details: buffer; pH 7.4; 200.0 µM

| SMILES | solubility kinetic |
| --- | --- |
| C=CCOc1ccccc1CN1CCCCCC1 | 28.7 µg/mL (≈ 117 µM) |
| COc1ccccc1NS(=O)(=O)c1ccc2oc(N)nc2c1 | > 47.9 µg/mL |
| CN(C)S(=O)(=O)c1cccc(NC(=O)c2ccc(NS(=O)(=O)c3cccs3)cc2)c1 | 59.5 µg/mL (≈ 128 µM) |
| CC(=O)Nc1ccc(NC(=O)CC(c2ccccc2)c2ccccc2)cc1 | 2.1 µg/mL (≈ 5.86 µM) |
| CC(=O)C1=C(O)C(=O)N(c2ccccn2)C1c1ccc(Cl)cc1 (stereo not given) | 40.9 µg/mL (≈ 124 µM) |
| O=Cc1cc2cc3c(cc2nc1Cl)OCCO3 | 0.9 µg/mL (≈ 3.61 µM) |
| O=C(NCc1ccc(F)cc1)c1cccnc1 | > 34.5 µg/mL |
| C=CCNC(=S)NCc1ccccc1 | > 30.9 µg/mL |
| Cc1ccc(C(C)NC(=O)c2ccc3c(c2)OCO3)cc1C (stereo not given) | 39.4 µg/mL (≈ 133 µM) |
| COc1ccc(NC(=O)CN(C)C(=O)C2(c3ccccc3)CCCC2)cc1 | > 55 µg/mL |
| COc1ccc(S(=O)(=O)N2CCc3ccccc3C2)cc1C(=O)O | 48.4 µg/mL (≈ 139 µM) |
| CCCNC(=O)c1cc(-c2ccc3c(c2)OCO3)on1 | 2.9 µg/mL (≈ 10.6 µM) |
| Nc1ccccc1C(=O)N1CCCC1 | > 28.5 µg/mL |
| CCCCNC(=O)[C@@H]1CSC2c3ccccc3C(=O)N21 (stereo not given in full) | > 43.6 µg/mL |
| Cc1ccc(NC(=O)Nc2cccc(C)n2)c(C)c1 | < 0.2 µg/mL |
| COc1cc2c(C(=O)O)c(C)n(-c3ccccc3)c2c2ccccc12 | 1.3 µg/mL (≈ 3.92 µM) |
| CCN1CCCC1CNC(=O)c1cc2cc(F)ccc2[nH]1 (stereo not given) | > 43.4 µg/mL |
| O=C(Nc1ccc2ccccc2c1)c1ccc2[nH]c(=O)c(=O)[nH]c2c1 | 4.3 µg/mL (≈ 13 µM) |
| CCC(=O)OCCNc1cc(SCCC(=O)OC)c2nonc2c1[N+](=O)[O-] | 54.9 µg/mL (≈ 138 µM) |
| CCC(=O)c1ccc(OCC(=O)N2CCN(CC(=O)Nc3ccccc3C(F)(F)F)CC2)cc1 | > 71.6 µg/mL |
| Cc1ccc(OCCn2ccnc2)c([N+](=O)[O-])c1 | 26.8 µg/mL (≈ 108 µM) |
| CN(C)c1nc(N(C)C)nc(N2CC(=O)N(c3ccccc3)C2=N)n1 | 8.4 µg/mL (≈ 24.7 µM) |
| Cc1cccc(NC(=S)N2CCCCCC2)c1C | > 39.4 µg/mL |
| Cc1cccc(NC(=O)CSc2cccc3cccnc23)c1C | 3.7 µg/mL (≈ 11.5 µM) |

| SMILES | solubility kinetic |
| --- | --- |
| Cc1nc(/C(N)=N/OC(=O)c2ccccc2Cl)c(C(F)(F)F)o1 | 35.8 µg/mL (≈ 103 µM) |
| O=C(O)c1ccc2c(c1)C(=O)N(c1ccc([N+](=O)[O-])cn1)C2=O | > 47 µg/mL |
| COc1ccc(C(=O)N2CCN(Cc3nc(CC4CC4)no3)CC2)cc1 | > 53.5 µg/mL |
| O=C(/C=C/c1ccc(Cl)cc1)Nc1ccc(Br)cn1 | < 0.4 µg/mL |
| Cc1csc(SCC(=O)Nc2ccc(C)c(F)c2)n1 | > 44.5 µg/mL |
| COc1cc(NC(=O)c2ccccn2)cc(OC)c1OC | > 43.2 µg/mL |
| CNC(=O)/C(C#N)=C/c1c(N2CCCCCC2)nc2c(C)cccn2c1=O | 50.4 µg/mL (≈ 138 µM) |
| Cc1nnc(SC(C)C#N)n1-c1ccccc1 (stereo not given) | > 36.6 µg/mL |
| O=C(c1ccccc1F)N1C(=O)c2cccc3cccc1c23 | < 0.6 µg/mL |
| O=C(Cc1ccccc1F)Nc1nc2ccccc2[nH]1 | 2.7 µg/mL (≈ 10 µM) |
| CC1CN(C(=O)CCNC(=O)c2ccccc2Cl)CC(C)O1 (stereo not given) | > 48.7 µg/mL |
| CSc1ncccc1C(=O)Nc1ccc2c(c1)OCO2 | 30.8 µg/mL (≈ 107 µM) |
| S=C(Nc1ccccc1Cl)NC1CCCCCC1 | 22 µg/mL (≈ 77.8 µM) |
| Cc1ccc(C)c(OCCN2CCOCC2)c1 | 24.9 µg/mL (≈ 106 µM) |
| COc1ccc2c(C=O)cn(C)c2c1 | > 28.4 µg/mL |
| CCOc1ccccc1NC(=O)CNC(=O)Cc1ccccc1 | 46.8 µg/mL (≈ 150 µM) |
| COc1ccc(C(=O)Nc2ccc(-c3n[nH]c(=S)o3)cc2)cc1 | > 49.1 µg/mL |
| Cc1nc(NC(=O)c2cnccn2)ccc1Br | 7.8 µg/mL (≈ 26.6 µM) |
| O=C(N/N=C/c1cccnc1)c1ccccc1Br | > 45.6 µg/mL |
| Cc1cc(=O)oc(C)c1C(=O)Nc1ccccc1F | 35.4 µg/mL (≈ 136 µM) |
| O=C(NCCCNC(=O)c1ccccc1)c1ccccc1 | > 42.4 µg/mL |
| CCOC(=O)c1cnc2ccc(C)cc2c1N(C)Cc1ccccc1 | 3.8 µg/mL (≈ 11.4 µM) |
| CC1CCCC(NC(=O)COC(=O)COc2ccc(C#N)cc2)C1C (stereo not given) | 45.4 µg/mL (≈ 132 µM) |
| CSc1ncccc1C(=O)N1CCN(S(=O)(=O)c2ccc3c(c2)OCCO3)CC1 | > 65.3 µg/mL |

| SMILES | solubility kinetic |
| --- | --- |
| O=S(=O)(NC1=NCCCCC1)c1ccc(F)cc1 | > 40.5 µg/mL |
| O=C(CCc1ccccc1)NCCc1ccc(F)cc1 | 37.4 µg/mL (≈ 138 µM) |
| O=C(Nc1ccc(F)cc1)C1C2CCC3C(CCC21)C3(Cl)Cl (stereo not given) | 0.8 µg/mL (≈ 2.34 µM) |
| CCc1nc(N[C@H](C(=O)O)C(C)C)c2oc3ccccc3c2n1 | > 47 µg/mL |
| CCOC(=O)C1CCCN(C(=O)c2cc3ccc(OC)cc3[nH]2)C1 (stereo not given) | > 49.6 µg/mL |
| COc1ccccc1NC(=O)c1ccccc1Oc1ccccc1 | < 0.7 µg/mL |
| Cn1cccc1C(=O)N1CCc2ccccc2C1 | > 36 µg/mL |
| COc1ccc(C(O)c2ncc(C(F)(F)F)cc2Cl)cc1 (stereo not given) | > 47.7 µg/mL |
| CCCn1c(=O)c(C(=O)Nc2cccc(C)c2)c(O)c2ccccc21 | < 0.4 µg/mL |
| COCC(=O)Nc1cc(Cl)ccc1C | > 32 µg/mL |
| N#Cc1ccc(C(=O)CN2CCN(c3ccccc3)CC2)cc1 | 34 µg/mL (≈ 111 µM) |
| Cc1occc1C(=O)NCc1nc(-c2ccccc2)no1 | > 42.5 µg/mL |
| CC(C)Oc1cccc(C2NC(=O)c3ccccc3O2)c1 (stereo not given) | 6.7 µg/mL (≈ 23.6 µM) |
| CCOc1ccc(NC(=O)CSc2ccccc2N)cc1 | > 45.4 µg/mL |
| COC(=O)CNC(=O)C12CC3CC(C1)CC(c1ccc(C)cc1)(C3)C2 | 6.5 µg/mL (≈ 19 µM) |
| COc1ccc(CC(=O)Nc2c(C(N)=O)oc3ccccc23)cc1 | 1.6 µg/mL (≈ 4.93 µM) |
| O=C1CC2(CCN(C(=O)c3ccc([N+](=O)[O-])cc3)CC2)Oc2ccccc21 | 3.2 µg/mL (≈ 8.73 µM) |
| O=c1c2[nH]c3ccc(F)cc3c2ncn1CC1CCCO1 (stereo not given) | 3.9 µg/mL (≈ 13.6 µM) |
| CC(C(=O)Nc1ccccc1)N(C)Cc1cccs1 (stereo not given) | 33.6 µg/mL (≈ 122 µM) |
| CCC(=O)N=c1ccn(C2=Nc3ccccc3NC2=C(C#N)C#N)cc1 | 30.9 µg/mL (≈ 90.3 µM) |
| Cc1ccc(O)c(-c2cc(-c3ccc(F)cc3)no2)c1 | < 0.6 µg/mL |
| CC(=O)c1ccc(OCC(=O)N2CCCC2c2ccc3c(c2)OCCCO3)cc1 (stereo not given) | 49.2 µg/mL (≈ 124 µM) |
| CCOc1ncccc1C(=O)OCC(=O)Nc1ccc2c(c1)CCC2 | 8.1 µg/mL (≈ 23.8 µM) |
| CSC1=NCCN1C(=O)c1c(-c2c(F)cccc2Cl)noc1C | > 53.1 µg/mL |

| SMILES | solubility kinetic |
| --- | --- |
| O=C(O)/C=C\C(=O)Nc1ccc(OC(F)F)cc1 | 35.5 µg/mL (≈ 138 µM) |
| O=c1[nH]cnc(O)c1C(c1cccc([N+](=O)[O-])c1)c1c(O)nc[nH]c1=O | > 53.6 µg/mL |
| CC1CC(C)CN(C(=O)COC(=O)CCC(=O)c2cccs2)C1 (stereo not given) | > 50.6 µg/mL |
| COc1ccc(N2CCN(c3nccs3)CC2)cc1 | > 41.3 µg/mL |
| O=C(NCc1csc(-c2cccs2)n1)C1CC1 | 34.3 µg/mL (≈ 130 µM) |
| Cc1ccc([N+](=O)[O-])cc1NC(=O)C1CCCC1 | 9.4 µg/mL (≈ 37.9 µM) |
| Cc1[nH]c2ccccc2c1C(c1ccncc1)N1CCCCC1 (stereo not given) | > 45.8 µg/mL |
| O=C1NC(=O)c2cc3ccccc3cc21 | 10.6 µg/mL (≈ 53.8 µM) |
| Cn1c(N)c(C(=O)Nc2cccc(Cl)c2)c(=O)n(C)c1=O | 2.5 µg/mL (≈ 8.1 µM) |
| CC(=O)c1ccc(OCCCC(=O)Nc2cccc(S(=O)(=O)N3CCCCCC3)c2)cc1 | 10.4 µg/mL (≈ 22.7 µM) |
| Cc1c(C(=O)NCC2CCCO2)oc2c(Cl)cccc12 (stereo not given) | > 44.1 µg/mL |
| O=S(=O)(Nc1ccccc1)c1ccc(NS(=O)(=O)c2cccs2)cc1 | 34.4 µg/mL (≈ 87.2 µM) |
| CC1(C)CC(NC(=O)c2ccc(Br)o2)CC(C)(C)N1 | > 49.4 µg/mL |
| O=C1Nc2ccccc2SC1c1ccccc1 (stereo not given) | 1.7 µg/mL (≈ 7.04 µM) |
| CC(=O)c1c(C)[nH]c(C(=O)Nc2ccc(F)cc2F)c1C | 20.6 µg/mL (≈ 70.5 µM) |
| CC(=O)NN1C(=O)c2ccccc2NC1c1ccc([N+](=O)[O-])o1 (stereo not given) | > 47.4 µg/mL |
| Cc1nc(-c2ccc(-c3ccon3)s2)no1 | 16.6 µg/mL (≈ 71.2 µM) |
| CCOP(=O)(CN(CC)C(=O)c1ccccc1Br)OCC | > 56.7 µg/mL |
| O=C(COC(=O)c1cc([N+](=O)[O-])ccc1NCCO)Nc1cccnc1Cl | 9.1 µg/mL (≈ 23.1 µM) |
| Cc1cc(=O)oc2cc(OCCSCCN3CCCC3)ccc12 | > 50 µg/mL |
| O=C(COC(=O)c1ccncc1)c1ccc(Cl)c(Cl)c1 | 39.8 µg/mL (≈ 128 µM) |
| CC1COC(Cn2c3ccccc3c3ccccc32)O1 (stereo not given) | 12.1 µg/mL (≈ 45.3 µM) |
| Cc1ccc(SCCC(=O)Nc2cc(C)on2)cc1 | 1.3 µg/mL (≈ 4.7 µM) |
| O=C(CN1CCCCCC1)Nc1c(Cl)cc(Cl)cc1Cl | 42.1 µg/mL (≈ 125 µM) |

| SMILES | solubility kinetic |
| --- | --- |
| Cc1cc(C)cc(NC(=S)N2CC(C)OC(C)C2)c1 (stereo not given) | 35.1 µg/mL (≈ 126 µM) |
| CC(C)[C@H](NC(=O)c1ccccc1)C(=O)OCC(=O)c1c(N)n(C)c(=O)n(C)c1=O | > 62.5 µg/mL |
| COC(=O)C1=C(C)NC(=O)NC1c1ccc2c(c1)OCO2 (stereo not given) | 37.3 µg/mL (≈ 128 µM) |
| CC1Oc2ccccc2N(CC(=O)NC2CCCC2)C1=O (stereo not given) | > 43.3 µg/mL |
| COCCN(Cc1ccccc1)C(=O)C1CCN(C(=O)Nc2ccccc2)CC1 | > 59.3 µg/mL |
| CCOC(=O)C1(Cc2ccccc2C)CCCN(C(=O)COC)C1 (stereo not given) | 35.6 µg/mL (≈ 107 µM) |
| CCOc1ncccc1C(=O)NCC(c1ccco1)N1CCCCC1 (stereo not given) | > 51.5 µg/mL |
| CC1(NC(=O)Nc2cccc3ccccc23)CCS(=O)(=O)C1 (stereo not given) | 43 µg/mL (≈ 135 µM) |
| CNc1nc(-c2ccc(S(=O)(=O)N3CCCCC3)cc2)cs1 | 2.8 µg/mL (≈ 8.3 µM) |
| COC(=O)c1ccc(Nc2cc(C)nc3ccc(C)cc23)cc1.Cl | 8 µg/mL |
| CN(C)C=NC(=O)c1cc(C(=O)c2ccc(F)cc2)c[nH]1 | > 43.1 µg/mL |
| O=C(CNC(=O)c1ccccc1F)Nc1ccc2c(c1)CCC2 | 2.9 µg/mL (≈ 9.28 µM) |
| CC(C)n1c(NCc2ccc(Cl)cc2)nc2ccccc21 | 0.7 µg/mL (≈ 2.33 µM) |
| COc1ccccc1NS(=O)(=O)c1cc(N)ccc1N1CCCCC1 | 6.1 µg/mL (≈ 16.9 µM) |
| Cc1ccccc1NC(=O)CCN1CCN(CCO)CC1 | 42.4 µg/mL (≈ 146 µM) |
| O=[N+]([O-])c1cccc(N2Cc3ccccc3C2)c1 | 7.9 µg/mL (≈ 32.9 µM) |
| CC1CCCC(C)N1C(=O)COC(=O)Cc1ccc(Cl)cc1 (stereo not given) | > 48.6 µg/mL |
| CC1CCCCC1NC(=O)COC(=O)c1cc(=O)[nH]c2ccccc12 (stereo not given) | 6.8 µg/mL (≈ 19.9 µM) |
| CN1CCN(c2ccc(CNS(=O)(=O)c3ccsc3)cc2)CC1 | 22.7 µg/mL (≈ 64.6 µM) |
| CCc1ccccc1S(=O)(=O)c1c(C)cc(C)nc1Cl | 24.3 µg/mL (≈ 78.4 µM) |
| O=[N+]([O-])c1ccccc1OCCOc1ccccc1[N+](=O)[O-] | < 0.3 µg/mL |
| O=C(NC(=S)Nc1cccnc1)c1ccccc1 | 36.1 µg/mL (≈ 140 µM) |
| COc1ccc(CC(=O)NC2CC2)cc1OC | > 35.3 µg/mL |
| C=CCn1c(O)c(C(C)=Nc2ccc3c(c2)CCC3)c(=O)[nH]c1=O | 0.8 µg/mL (≈ 2.46 µM) |
